Test results as given in patent US10993923B2, “Method for ameliorating fibrosis using 1-[4-chloro-3-(trifluoromethyl)phenyl]-3-[3-(4-cyanophenoxy)phenyl]urea” (priority 2016, dated 2021).

Legend:
[1] = tested on: CCl4-induced hepatic fibrosis in mice; test: CCl4-induced hepatic fibrosis mice treatment model; type: in vivo, male C57BL/6J mice
Text: In male C57BL/6J mice, liver fibrosis was induced by carbon tetrachloride (CCl4). The mice were given peritoneal injection of carbon tetrachloride for 4 or 8 weeks every two weeks.
The mice liver samples were stored in 10% formaldehyde, dehydrated with gradient alcohol, embedded in paraffin blocks, sectioned to a thickness of 3 μm, placed on glass slides, and stained with Picrosirius Red Stain kit (ScyTek, USA), following the manufacturer's instructions. The severity of liver fibrosis was graded according to the Ishak fibrosis score. Quantitative collagen-positive area (qCPA) was determined by densitometry via ImageJ software. Hepatic hydroxyproline concentrations were measured by the hydroxyproline assay kit (Biovision, USA), following the manufacturer's instructions Immunohistochemistry was performed by the Leica BOND-MAX automatic chromatograph (Leica Biosystems, Germany), following the manufacturer's instructions.
Continuous variables are presented as mean (standard error), and categorical data are presented as number (percentage), as appropriate. Differences between subgroups were evaluated using the Student t test. Spearman's correlation was used for the association between SHP-1 and serum alanine aminotransferase (ALT). The mouse survival rate was estimated using the Kaplan-Meier method. The log-rank test was used to determine the statistical differences in survival of the different experimental groups. Statistical analysis was performed using STATA (version 13, Stata Corp, College Station, Tex., USA). All tests were two-sided, and P<0.05 was considered significant.

[2] = tested on: LX2 cells; test: Apoptosis (Annexin V / propidium iodide flow cytometry), LX2 cells; type: cell-based, human
Description: Rat immortal hepatic stellate cell line HSC-T6 and LX2 human hepatic stellate cell line were provided by Professor Scott Friedman of Mount Sinai Hospital in New York, USA. The primary mouse HSCs were obtained via the way: after intubating the hepatic portal vein of the mouse, the cells were perfused with […] and ethylene glycol bis-aminoethyl ether tetraacetic acid (EGTA) buffer in situ, and then collagenase was injected to digest the liver tissue, and then the primary mouse HSCs were isolated by Histodnz gradient. HSC-T6 cells were cultured in Waymouth medium; LX2 cells and primary mouse HSCs were cultured in Dulbecco's Modified Eagle Medium (DMEM) containing 10% fetal bovine serum (FBS), 100 μg/mL penicillin, 100 μg/mL streptomycin, and 2 mM L-glutamine HSC-T6 cells, LX2 cells and primary mouse HSCs were cultured in a humidified incubator containing 5% carbon dioxide at 37° C. After adding the FBS, the resting HSC is started. […] The experiment was carried out following the manufacturer's instructions, and each group was triple repetition. […] The proportion of apoptotic cells was mixed the early (Annexin V+/PI-) and the late (Annexin V+/PI+) apoptotic cells measured by BD FACS Verse flow cytometry (BD, USA). Plasmids encoding the human wild-type SHP-1 and SHP-1 mutant, in which the N-SH2 domain was […] was changed into an […]) were cloned into the pCMV6-entry vector with myc-tag. These mutants were confirmed through DNA sequencing. […] (Chicago, Ill., USA).

[3] = tested on: PDGFR and STAT3 pathways in HSC-T6 cells; test: Western blot of signalling proteins in HSC-T6 cells; type: cell-based, rat
Description: Rat immortal hepatic stellate cell line HSC-T6 and LX2 human hepatic stellate cell line were provided by Professor Scott Friedman of Mount Sinai Hospital in New York, USA. The primary mouse HSCs were obtained via the way: after intubating the hepatic portal vein of the mouse, the cells were perfused with Leffert's and ethylene glycol bis-aminoethyl ether tetraacetic acid (EGTA) buffer in situ, and then collagenase was injected to digest the liver tissue, and then the primary mouse HSCs were isolated by Histodnz gradient. HSC-T6 cells were cultured in Waymouth medium; LX2 cells and primary mouse HSCs were cultured in Dulbecco's Modified Eagle Medium (DMEM) containing 10% fetal bovine serum (FBS), 100 μg/mL penicillin, 100 μg/mL streptomycin, and 2 mM L-glutamine HSC-T6 cells, LX2 cells and primary mouse HSCs were cultured in a humidified incubator containing 5% carbon dioxide at 37° C. After adding the FBS, the resting HSC is started. […]
Whole-cell extracts were obtained via RIPA buffer (Millipore, USA) and protein concentrations were quantified via a BCA protein assay kit (Thermo Fisher Scientific, USA). […] Proteins were detected by Immobilon Western Chemiluminescent HRP substrate (Millipore, USA) or ECL detection system (UVP Corporation, USA). […]

[4] = molecular target: T1, SHP-1 (Homo sapiens, UniProt P29350); test: SHP-1 phosphatase activity, LX2 cells; type: cell-based
T1 construct: LX2 cell protein extract were reacted with anti-SHP-1 antibody in immunoprecipitation buffer overnight; endogenous in cells; host or cells: LX2 cells
Description: After drug treatment, mouse fibroblasts (NIH3T3 cell line), human lung epithelial cells (A549 cell line) or LX2 cell protein extract were reacted with anti-SHP-1 antibody in immunoprecipitation buffer overnight. Protein A/G Sepharose Fast Flow Beads (GE) were added to each sample, followed by a rotation reaction at 4° C. for 3 hours. The 96EnzChek® tyrosine phosphatase assay kit (R-22067) was used for SHP-1 activity assay (Invitrogen, USA).
Plasmids encoding the human wild-type SHP-1 and SHP-1 mutant, in which the N—SH2 domain was truncated (dN1) or one aspartic acid at site 61 was changed into an alanine residue (D61A) were cloned into the pCMV6-entry vector with myc-tag. These mutants were confirmed through DNA sequencing. Smart-pool siRNA, including the control (D-001810-10), and SHP-1 (PTPN6, L-009778-00-0005) were obtained from Dharmacon Inc. (Chicago, Ill., USA). For transient expression, SHP-1 plasmids or siRNA (final concentration, 100 nM) with the Lipofectamine 2000 transfection reagent were pretransfected into the LX2 cells for 24 h, following the manufacturer's instructions.

T1 sequence (P29350 whole entry): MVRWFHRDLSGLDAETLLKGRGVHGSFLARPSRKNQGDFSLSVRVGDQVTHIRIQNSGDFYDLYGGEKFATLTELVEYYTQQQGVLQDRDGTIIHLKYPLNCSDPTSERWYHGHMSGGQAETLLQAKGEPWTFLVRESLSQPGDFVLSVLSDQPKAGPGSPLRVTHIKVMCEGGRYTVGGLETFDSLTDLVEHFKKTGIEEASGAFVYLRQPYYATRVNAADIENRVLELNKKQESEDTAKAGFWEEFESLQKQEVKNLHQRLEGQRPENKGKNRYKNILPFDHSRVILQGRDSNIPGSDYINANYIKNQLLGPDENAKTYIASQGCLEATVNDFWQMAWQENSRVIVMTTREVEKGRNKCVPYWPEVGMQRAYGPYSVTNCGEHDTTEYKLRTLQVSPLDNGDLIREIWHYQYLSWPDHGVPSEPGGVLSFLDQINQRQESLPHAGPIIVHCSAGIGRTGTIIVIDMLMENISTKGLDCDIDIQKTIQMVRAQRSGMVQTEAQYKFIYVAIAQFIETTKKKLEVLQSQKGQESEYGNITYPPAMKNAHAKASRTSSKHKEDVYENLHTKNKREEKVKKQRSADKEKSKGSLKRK

N#Cc1ccc(Oc2cccc(NC(=O)Nc3ccc(Cl)c(C(F)(F)F)c3)c2)cc1 [1-[4-chloro-3-(trifluoromethyl)phenyl]-3-[3-(4-cyanophenoxy)phenyl]urea]
survival compared with the sorafenib treatment ([1]; 10 mg/kg, log rank P=0.0671, FIG. 12E): tendency to yield higher survival
survival rate compared with the control group ([1]; 10 mg/kg, log-rank P=0.0291, FIG. 12E): significantly improved the survival rate
anti-fibrotic activity in qCPA, Ishak fibrosis score and hydroxyproline concentration ([1]; 5, 10, or 20 mg/kg, FIG. 12B-12D): increasing anti-fibrotic activity
hepatic fibrosis (picrosirius red staining) ([1]; compound 5, 10, or 20 mg/kg or sorafenib 10 mg/kg, with CCl4 for 6 weeks after 2 weeks CCl4 induction, FIG. 12A): significantly improved hepatic fibrosis
apoptotic LX2 cells, ectopic expression of the vector control and wild-type SHP-1 ([2]; 5 μM, 24 hours, FIG. 17D, 17E): significantly increased the apoptotic LX2 cells
HSC apoptosis ([2]; LX2, 24 hours, compared with sorafenib, FIG. 14B): significantly increased HSC apoptosis in a dose-dependent manner
cell apoptosis and p-STAT3 downregulation in dN1 and D61A mutants ([2]; LX2, 5 μM, 24 hours, FIG. 17E): insensitive
anti-proliferative activity after SHP-1 knockdown by using siRNA ([2]; LX2, FIG. 16F): significantly counteracted
p-PDGFR and p-Akt in the PDGFR pathway ([3]; 10 μM for 4 hours, then PDGF-BB 100 ng/mL 10 minutes, FIG. 14E): downregulated
downregulation of p-STAT3 and cyclin D1, compared with sorafenib ([3]; FIG. 15A): more significant dose-escalation effects on the downregulation
SHP-1 activity in the ectopic expression of the vector and wild-type SHP-1 ([4]; FIG. 17C): significantly increased the SHP-1 activity
SHP-1 activity ([4]; LX2, sorafenib 5 μM, compound 2.5 or 5 μM, FIG. 16C): significantly increased the SHP-1 activity at a lower concentration
enhancing SHP-1 activity, compared with sorafenib ([4]; test system not stated at the place, text refers to FIG. 2A): better than the known anti-fibrosis drug sorafenib
